Experimental data as given in paper PMC4301871, “WW Domains of the Yes-Kinase-Associated-Protein (YAP) Transcriptional Regulator Behave as Independent Units with Different Binding Preferences for PPxY Motif-Containing Ligands” (PLoS ONE, 2015).
Read-outs that look alike come from different tables or passages of the source.

How the values were obtained:
[1] = target: T1, YAP-WW1 (first WW domain of human YAP, residues 165–209) (Homo sapiens, UniProt P46937); experiment: Isothermal titration calorimetry of peptide ligands with isolated YAP-WW1; assay type: binding; conditions: ITC, 25°C; for n (number of binding sites) / Kd: 40 mM sodium phosphate pH 7.0 (10 mM β-mercaptoethanol for LATS2), one set of identical sites model, at least two experiments; for n (number of binding sites): variability about 1%; for Kd: variability about 10%; for -T·ΔSap / ΔGap / ΔHap: pH 7.0, one set of sites model; for ΔHap: variability about 5%
T1 construct: residues 165–209 for the first WW domain of human YAP (YAP-WW1); poly-histidine (N, cleaved yes); GST (N, cleaved yes); made in house; host or cells: E. coli BL21 (DE3)
Method: (§1) ITC experiments were carried out using a high-precision VP-ITC titration calorimeter (Microcal Inc., Northampton, Massachusetts). The WW domains were extensively dialyzed against 40 mM sodium phosphate buffer, pH 7.0, with the exception of those experiments using the LATS2 ligand, (containing a cysteine residue), for which the dialysis was performed in the presence of 10mM β-mercaptoethanol to reduce intermolecular di-sulphide bonds formed during ligand storage. Protein and peptide solutions, ranging from 20 to 40 μM for the proteins and from 0.8 to 2 mM for the ligands, were properly degassed to avoid bubble formation and equilibrated to 25°C prior to the titration experiment. In all cases, a profile of injection volumes from 3 to 20 μl was used to better define the titration curve. The heat evolved after each peptide injection was obtained from the integral of the calorimetric signal. The heat associated with the binding process was obtained as the difference between the heat of reaction and the corresponding heat of dilution, as obtained from independent titrations of the peptides into the buffer.
(§2) For the individual WW domains and those ligands with similar binding affinities for YAP-WW1 and YAP-WW2 domains (LATS1-a and LATS2), the resulting binding isotherms were analyzed by non-linear least-squares fittings to a model corresponding to a single set of identical sites, according to the equation:
(§3) Q=V0ΔH/2Ka[1+Ka[Lt]+nKa[Mt]+(1+Ka[Lt]+nKa[Mt])^2−4nKa2[Mt][Lt]] (equation 2)
(§4) , where Q is the net heat of binding, n is the number of binding sites, ΔH is the change in the enthalpy due to the binding process, Ka is the association constant, V0 is the active cell volume, and [Mt] and [Lt] are the total concentrations of macromolecule and the ligand, respectively.
(§5) Both models were implemented in Origin 7.0 software (OriginLab Corporation, Northampton, MA). For the least-squares fit using the one set of sites model, the number of binding sites, the association constant, and the binding enthalpy were considered as floating parameters, while in the analysis with the two set of sites model, only the two association constants and the two binding enthalpies were left to float. All experiments were performed at least twice. Typically, the variability of the experimental values was estimated to be about 1% in the number of binding sites, 5% in the binding enthalpy and 10% in the binding affinity.

[2] = target: T2, YAP-WW2 (second WW domain of human YAP, residues 228–271) (Homo sapiens, UniProt P46937); experiment: Isothermal titration calorimetry of peptide ligands with isolated YAP-WW2; assay type: binding; conditions: ITC, 25°C; for n (number of binding sites) / Kd: 40 mM sodium phosphate pH 7.0 (10 mM β-mercaptoethanol for LATS2), one set of identical sites model, at least two experiments; for n (number of binding sites): variability about 1%; for Kd: variability about 10%, n.b. = no binding detected; for -T·ΔSap / ΔGap / ΔHap: pH 7.0, one set of sites model; for ΔHap: variability about 5%
T2 construct: residues 228–271 for the second WW domain (YAP-WW2); poly-histidine (N, cleaved yes); GST (N, cleaved yes); made in house; host or cells: E. coli BL21 (DE3)
Method: as §1, §2, §3, §4, §5

[3] = target: T3, YAP-WW1-WW2 tandem construct (human YAP residues 165–271) (Homo sapiens, UniProt P46937); experiment: Isothermal titration calorimetry of peptide ligands with the YAP-WW1-WW2 tandem; assay type: binding; conditions: ITC, 25°C; for n (number of binding sites): 40 mM sodium phosphate pH 7.0 (10 mM β-mercaptoethanol for LATS2), binding model for one set of sites
T3 construct: residues 165–271 for tandem construct (YAP-WW1-WW2); poly-histidine (N, cleaved yes); GST (N, cleaved yes); made in house; host or cells: E. coli BL21 (DE3)

YAP-WW1 domain = experiment: Phage ELISA of YAP-WW2-selected clones, displacement of p53BP2 from YAP-WW1; assay type: binding, human; conditions: YAP-WW1 compared with YAP-WW2
Method: The analysis of the binding preferences of the WW domains was performed by phage-display as previously described. Briefly, an N-term library in PIII was generated using a template derived from the pS2202d phagemid, containing the Erbin-PDZ domain kindly provided by Dr. Sachdev Sidhu (University of Toronto). The Erbin-PDZ sequence was removed by the introduction of four stop codons between the secretion signal and the linker required for the correct display of the library variants in the phage. A randomized sequence corresponding to a x5(L/P)PxYx5 peptide library containing the L/PPxY core motif for type 1 WW domains was subsequently introduced into the modified phagemid. The resulting library was then introduced into the SS320 strain by electroporation. The subsequent phage propagation led to 10^11 library diversity, which was isolated at 5 x 10^13 phages/ml in PBS-Tween (0.05%) buffer. The resulting library was then screened against immobilized GST-tagged YAP-WW2 domain (GST-YAP-WW2) in PBS, carrying out seven rounds of an iterative selection process. Single clones were chosen from round 3 to round 7 and tested for specific binding to the GST-YAP-WW2 by phage ELISA in a Tecan Infinite M200 instrument. […] The DNA from phages showing binding in the ELISA assay were used as PCR templates to amplify the peptide-encoding regions, which were then sequenced and analyzed.

[4] = pH 7.0, binding model for one set of sites
[5] = pH 7.0, model of two different sets of sites, n fixed to 1 each, first set of sites (first line)
[6] = pH 7.0, model of two different sets of sites, n fixed to 1 each, second set of sites (second line)
[7] = pH 7.0, two sets of sites model, n fixed to 1, first set of sites
[8] = pH 7.0, two sets of sites model, n fixed to 1, second set of sites

T3 sequence (P46937 165-271): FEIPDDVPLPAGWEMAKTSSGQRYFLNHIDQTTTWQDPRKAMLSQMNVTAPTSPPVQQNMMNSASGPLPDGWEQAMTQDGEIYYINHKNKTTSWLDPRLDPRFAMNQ
T1 sequence (P46937 165-209): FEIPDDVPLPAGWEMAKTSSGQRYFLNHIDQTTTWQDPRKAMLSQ
T2 sequence (P46937 228-271): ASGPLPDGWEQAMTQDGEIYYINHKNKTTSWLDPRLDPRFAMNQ

In the case of CC(=O)N[C@@H](CC(N)=O)C(=O)N[C@@H](CCCNC(=N)N)C(=O)N[C@@H](CCC(N)=O)C(=O)N1CCC[C@H]1C(=O)N1CCC[C@H]1C(=O)N1CCC[C@H]1C(=O)N1CCC[C@H]1C(=O)N[C@@H](Cc1ccc(O)cc1)C(=O)N1CCC[C@H]1C(=O)N[C@@H](CC(C)C)C(=O)N[C@H](C(=O)N[C@@H](C)C(N)=O)[C@@H](C)O [LATS1-a], the “n (number of binding sites)” value [1] is reported as 0.96, the Kd [1] is reported as 21.5 µM and the “-T·ΔSap” value [1] is reported as 9.63 kcal/mol. For the same compound, the ΔGap [1] was -6.38 kcal/mol, the ΔHap [1] was -16 kcal/mol and the “n (number of binding sites)” value [2] was 1.09. The Kd ([2]; read-out: Kd) was 27 µM, the “-T·ΔSap” value [2] was 12 kcal/mol and the ΔGap [2] was -6.24 kcal/mol. For the same compound, the ΔHap [2] was -18.2 kcal/mol, the “n (number of binding sites)” value [3] was 2.04 and the “-T·ΔSap” value [3, 4] was 11.1 kcal/mol. The Kd [3, 4] was 33.4 µM, the ΔGap [3, 4] was -6.12 kcal/mol and the ΔHap [3, 4] was -17.2 kcal/mol.
For Ac-RRCPPPPYPKHL-NH2 [LATS2], the “n (number of binding sites)” value [1] was 1.05, the Kd [1] was 7.1 µM and the “-T·ΔSap” value [1] was 11.9 kcal/mol. For the same compound, the ΔHap [1] was -18.8 kcal/mol, the “n (number of binding sites)” value [2] was 1.08 and the Kd ([2]; read-out: Kd) was 8.2 µM. For the same compound, the “-T·ΔSap” value [2] was 6.86 kcal/mol, the ΔGap [2] was -6.96 kcal/mol and the ΔHap [2] was -13.8 kcal/mol. The “n (number of binding sites)” value [3] was 2.02, the “-T·ΔSap” value [3, 4] was 9.56 kcal/mol and the Kd [3, 4] was 9.2 µM. It also gave a ΔGap [3, 4] of -6.88 kcal/mol and a ΔHap [3, 4] of -16.4 kcal/mol.
With Ac-EGLWPPPYRPRR-NH2 [PTCH1-b] the “n (number of binding sites)” value [1] was 1.09, the Kd [1] was 13.2 µM and the “-T·ΔSap” value [1] was 11.3 kcal/mol. For the same compound, the ΔGap [1] was -6.67 kcal/mol, the ΔHap [1] was -18 kcal/mol and the Kd [2] was “no interaction was detected and n.b”. For the same compound, the “-T·ΔSap” value [3, 4] was 12.6 kcal/mol, the Kd [3, 4] was 16.9 µM and the ΔGap [3, 4] was -6.52 kcal/mol. It also gave a ΔHap [3, 4] of -19.2 kcal/mol.
In the case of AGRPPPPPYPGPPL, the “Interaction with the two WW domains of YAP (ELISA binding experiments)” value (YAP-WW1 domain) is reported as “seems to interact similarly with the two WW domains of YAP”.
With Ac-YQGPPPPYPKHL-NH2 [LATS1-b] the “n (number of binding sites)” value [1] was 0.91, the Kd [1] was 3.7 µM and the “-T·ΔSap” value [1] was 9.08 kcal/mol. The ΔGap [1] was -7.41 kcal/mol, the ΔHap [1] was -16.5 kcal/mol and the “n (number of binding sites)” value [2] was 0.94. For the same compound, the Kd ([2]; read-out: Kd) was 33.9 µM, the “-T·ΔSap” value [2] was 10.7 kcal/mol and the ΔGap [2] was -6.12 kcal/mol. The ΔHap [2] was -16.8 kcal/mol, the Kd [3, 5] was 4.8 µM and the Kd [3, 6] was 31.9 µM. For the same compound, the “-T·ΔSap” value [3, 7] was 9.66 kcal/mol, the ΔGap [3, 7] was -7.27 kcal/mol and the ΔHap [3, 7] was -16.9 kcal/mol. The “-T·ΔSap” value [3, 8] was 6.24 kcal/mol, the ΔGap [3, 8] was -6.14 kcal/mol and the ΔHap [3, 8] was -12.4 kcal/mol.
For CC(=O)N[C@@H](CCCNC(=N)N)C(=O)N[C@@H](Cc1ccc(O)cc1)C(=O)N[C@@H](CO)C(=O)N1CCC[C@H]1C(=O)N1CCC[C@H]1C(=O)N1CCC[C@H]1C(=O)N1CCC[C@H]1C(=O)N[C@@H](Cc1ccc(O)cc1)C(=O)N[C@@H](CO)C(=O)N[C@@H](CO)C(=O)N[C@@H](Cc1c[nH]cn1)C(=O)N[C@@H](CO)C(N)=O [PTCH1-a], the “n (number of binding sites)” value [1] was 0.95, the Kd [1] was 27.6 µM and the “-T·ΔSap” value [1] was 9.3 kcal/mol. The ΔGap [1] was -6.24 kcal/mol, the ΔHap [1] was -15.5 kcal/mol and the “n (number of binding sites)” value [2] was 0.91. The Kd ([2]; read-out: Kd) was 45.8 µM, the “-T·ΔSap” value [2] was 9.82 kcal/mol and the ΔGap [2] was -5.93 kcal/mol. It also gave a ΔHap [2] of -15.8 kcal/mol, a Kd [3, 5] of 24.7 µM and a Kd [3, 6] of 47.4 µM. For the same compound, the “-T·ΔSap” value [3, 7] was 6.33 kcal/mol, the ΔGap [3, 7] was -6.31 kcal/mol and the ΔHap [3, 7] was -12.6 kcal/mol. The “-T·ΔSap” value [3, 8] was 12.1 kcal/mol, the ΔGap [3, 8] was -5.9 kcal/mol and the ΔHap [3, 8] was -18 kcal/mol.
